According to the supplement of paper PMC10307832:

Assays:
Experiment in all cases: relative viability (nuclei count vs DMSO), 5 days (fraction); higher = more cells survive
[1] = compound: CC1=CC(=CC=C1)NC2=NC(=CS2)C3=CC=NC=C3 + CC(C)C[C@H](NC(=O)[C@H](Cc1ccccc1)NC(=O)c1cnccn1)B(O)O [Bortezomib] (partner 0.002 µM)
In short: (§1)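 One day after seeding in 1536-well plates, lung cancer cell lines were dosed by pin tool. Dosing was either single-drug or a fixed anchor-drug dose plus five library-drug doses (not always all listed) in √10 steps. After 5 days, nuclei were stained in one fix-and-stain step and counted on 4× images, and relative viability is the nuclei count of treated wells over that of vehicle wells, given as the median of duplicate plates.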

[2] = compound: CC1=CC(=CC=C1)NC2=NC(=CS2)C3=CC=NC=C3 + CS(=O)(=O)CCNCc1ccc(-c2ccc3ncnc(Nc4ccc(OCc5cccc(F)c5)c(Cl)c4)c3c2)o1 [Lapatinib] (partner 2 µM)
In short: as §1

[3] = compound: CC1=CC(=CC=C1)NC2=NC(=CS2)C3=CC=NC=C3 + Cc1cc(Nc2cc(N3CCN(C)CC3)nc(Sc3ccc(NC(=O)C4CC4)cc3)n2)n[nH]1 [Tozasertib] (partner 0.1 µM)
In short: as §1

[4] = compound: CC1=CC(=CC=C1)NC2=NC(=CS2)C3=CC=NC=C3 + O=C(c1cc(Cc2n[nH]c(=O)c3ccccc23)ccc1F)N1CCN(C(=O)C2CC2)CC1 [Olaparib] (partner 8 µM)
In short: as §1

Row | Cell Line | relative viability ([1]; first compound 0.08 µM) | relative viability ([1]; first compound 0.253 µM) | relative viability ([1]; first compound 0.8 µM) | relative viability ([1]; first compound 2.53 µM) | relative viability ([1]; first compound 8 µM) | relative viability ([2]; first compound 0.08 µM) | relative viability ([2]; first compound 0.253 µM) | relative viability ([2]; first compound 0.8 µM) | relative viability ([2]; first compound 2.53 µM) | relative viability ([2]; first compound 8 µM) | relative viability ([3]; first compound 0.08 µM) | relative viability ([3]; first compound 0.253 µM) | relative viability ([3]; first compound 0.8 µM) | relative viability ([3]; first compound 2.53 µM) | relative viability ([3]; first compound 8 µM) | relative viability ([4]; first compound 0.08 µM) | relative viability ([4]; first compound 0.253 µM) | relative viability ([4]; first compound 0.8 µM) | relative viability ([4]; first compound 2.53 µM) | relative viability ([4]; first compound 8 µM)
1 | BEN | 0.816 | 0.618 | 0.546 | 0.697 | 0.794 | 0.733 | 0.62 | 0.498 | 0.669 | 0.741 | 0.437 | 0.557 | 0.512 | 0.479 | 0.563 | 0.928 | 1.15 | 1.1 | 0.975 | 1.09
2 | EMC-BAC-2 | 0.982 | 1.04 | 1.01 | 0.99 | 0.927 | 0.78 | 0.85 | 0.839 | 0.829 | 0.848 | 0.261 | 0.286 | 0.287 | 0.285 | 0.323 | 0.424 |  | 0.384 | 0.366 | 0.326
3 | LXF-289 | 0.952 | 0.959 | 0.988 | 0.978 | 0.823 | 0.815 | 0.93 | 0.938 | 0.823 | 0.807 | 0.168 | 0.182 | 0.188 | 0.189 | 0.13 | 1.02 | 0.994 | 1.04 | 1.05 | 0.927
4 | ABC-1 | 0.316 | 0.265 | 0.328 | 0.315 | 0.32 | 1.24 | 1.14 | 1.03 | 1.02 | 1.01 | 0.206 | 0.173 | 0.176 | 0.187 | 0.237 | 0.48 |  | 0.735 | 0.525 | 0.574
5 | NCI-H358 |  |  |  |  |  | 0.433 | 0.476 | 0.554 | 0.607 | 0.604 | 0.112 | 0.116 | 0.11 | 0.118 | 0.101 | 0.547 | 0.519 | 0.521 | 0.5 | 0.521
6 | EBC-1 | 0.434 | 0.463 | 0.602 | 0.517 | 0.282 | 0.202 | 0.238 | 0.204 | 0.206 | 0.167 |  |  |  |  |  | 0.575 | 0.417 | 0.328 | 0.41 | 0.451
7 | NCI-H441 | 0.423 | 0.361 | 0.427 | 0.53 | 0.136 |  |  |  |  |  | 0.617 | 0.536 | 0.527 | 0.492 | 0.484 | 0.564 | 0.52 | 0.571 | 0.688 | 0.521
8 | NCI-H1563 | 0.794 | 0.842 | 0.808 | 0.836 | 0.59 | 0.912 | 0.64 | 0.912 | 0.761 | 0.634 |  |  |  |  |  |  |  |  |  | 
9 | NCI-H2342 |  |  |  |  |  |  |  |  |  |  | 0.533 | 0.423 | 0.573 | 0.476 | 0.505 | 0.438 | 0.468 | 0.398 | 0.476 | 0.395
10 | ChaGo-K-1 | 0.866 | 0.775 | 1.06 | 0.579 | 0.812 |  |  |  |  |  | 0.227 | 0.241 | 0.241 | 0.235 | 0.231 | 0.407 | 0.389 | 0.424 | 0.418 | 0.351
11 | LK-2 |  |  |  |  |  | 0.784 | 0.903 | 1.09 |  | 1.33 |  | 0.175 | 0.173 |  | 0.184 | 0.665 | 0.762 | 0.903 | 0.824 | 1.09
12 | NCI-H2170 |  |  |  |  |  | 0.259 | 0.255 | 0.255 | 0.275 | 0.264 | 0.729 | 0.71 | 0.663 | 0.793 | 0.628 | 0.589 | 0.631 | 0.473 | 0.531 | 0.425
13 | NCI-H1944 |  |  |  |  |  | 0.707 | 0.783 | 0.812 | 0.626 | 0.613 | 0.291 | 0.24 | 0.226 | 0.203 | 0.178 | 0.377 | 0.379 | 0.377 | 0.327 | 0.377
14 | A549 |  |  |  |  |  | 0.863 | 0.893 | 0.898 | 0.891 | 0.809 |  |  |  |  |  | 0.264 | 0.37 | 0.353 | 0.261 | 0.449
15 | SK-MES-1 |  |  |  |  |  | 0.449 | 0.416 | 0.378 | 0.432 | 0.369 | 0.708 | 0.679 | 0.722 | 0.737 | 0.718 | 0.423 | 0.437 | 0.466 | 0.457 | 0.401
16 | NCI-H1395 |  |  |  |  |  | 0.882 | 0.733 | 0.982 | 0.761 | 0.818 | 0.604 | 0.782 | 0.689 | 0.669 | 0.693 | 0.439 |  | 0.478 | 0.46 | 0.43
17 | NCI-H1299 | 0.973 | 0.983 | 0.91 | 1.04 | 0.885 | 0.969 | 0.938 | 0.933 | 0.946 | 0.84 |  |  |  |  |  | 1.01 | 1 | 0.889 | 0.904 | 0.854
18 | SW 900 |  |  |  |  |  |  |  |  |  |  | 0.533 | 0.437 | 0.476 | 0.365 | 0.299 | 0.751 | 0.667 | 0.693 | 0.433 | 0.543
19 | NCI-H1792 | 0.954 | 0.75 | 0.784 | 0.81 | 0.898 | 0.885 | 0.659 | 0.772 | 0.722 | 0.866 |  |  |  |  |  | 0.312 | 0.307 | 0.248 | 0.255 | 0.32
20 | IA-LM | 0.803 |  | 0.705 | 0.511 | 0.494 | 0.65 | 0.503 | 0.561 | 0.508 | 0.572 |  |  |  |  |  | 0.8 | 0.779 | 0.605 | 0.475 | 0.714
21 | LCLC-103H | 0.995 | 1.12 | 1.05 | 1.1 | 0.635 |  |  |  |  |  | 0.529 | 0.405 | 0.427 | 0.429 | 0.388 | 0.631 | 0.725 | 0.704 | 0.748 | 0.546
22 | NCI-H1648 |  |  |  |  |  |  |  |  |  |  | 0.387 | 0.315 | 0.46 | 0.384 | 0.294 | 0.545 | 0.412 | 0.656 | 0.477 | 0.392
